Measurements published in PMC4505066, “Insights into the Recruitment of Class IIa Histone Deacetylases (HDACs) to the SMRT/NCoR Transcriptional Repression Complex” (The Journal of Biological Chemistry, 2015).
Where two headings read alike, the source gives them in different places. One block for each compound: values may come before it. No end group written: not given here.

What was measured:
[1] = molecular target: T1, HDAC4 catalytic domain (wild type) (Homo sapiens, UniProt P56524); assay: Fluorescence anisotropy binding of BODIPY-TMR labeled GSI motif peptides to HDAC4
T1 construct: we purified the recombinant catalytic domains of HDACs 4, 5, 7, and 9; hexa-histidine tag (N, cleaved yes); S-tag (N, cleaved yes); made in house; host or cells: Escherichia coli Rosetta (pET30)
Protocol: Immediately prior to the fluorescence anisotropy assays the HDACs were concentrated and buffer exchanged into 1× PBS, 0.5 mM Tris(2-carboxyethyl)-phosphine and the protein concentration was determined by A280 in 6 M guanidine HCl. Protein was dispensed into 96-well black plates prior to a 2-fold serial dilution in reaction buffer (1× PBS, 0.01% Triton X-100, 0.1 mg/ml of BSA). Inhibitors were preincubated with HDACs for 30 min at a 2:1 ratio before serial dilution. Labeled peptide was added to a final concentration of 1 μM in a 50-μl reaction volume. […] Data were analyzed using GraphPad Prism, assuming non-linear fit with one-site binding to fulfill the equation y = Bmax × x/(Kd + x).

[2] = molecular target: T2, H976Y gain-of-function (GOF) HDAC4 catalytic domain (Homo sapiens, UniProt P56524, H976Y); assay: Fluorescence anisotropy binding of GSI peptide to H976Y gain-of-function HDAC4
T2 construct: the H976Y gain-of-function (GOF) HDAC4 catalytic domain; hexa-histidine tag (N, cleaved yes); S-tag (N, cleaved yes); made in house; host or cells: Escherichia coli Rosetta (pET30)
T2 sequence (P56524 655-1084 H976Y limits assumed): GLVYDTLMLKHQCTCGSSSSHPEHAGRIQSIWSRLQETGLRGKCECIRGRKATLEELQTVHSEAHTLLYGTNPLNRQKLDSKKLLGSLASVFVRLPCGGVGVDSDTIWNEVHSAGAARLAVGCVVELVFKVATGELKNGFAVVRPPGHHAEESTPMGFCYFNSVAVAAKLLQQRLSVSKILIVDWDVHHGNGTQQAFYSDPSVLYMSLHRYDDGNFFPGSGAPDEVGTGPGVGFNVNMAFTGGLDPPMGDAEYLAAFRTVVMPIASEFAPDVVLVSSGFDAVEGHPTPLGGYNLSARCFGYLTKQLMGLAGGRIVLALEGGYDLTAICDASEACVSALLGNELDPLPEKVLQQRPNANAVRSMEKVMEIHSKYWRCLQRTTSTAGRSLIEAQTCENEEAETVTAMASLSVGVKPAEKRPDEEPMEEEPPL
Protocol: Peptides were coupled to BODIPY-TMR by incubation in 18 MΩ water at a 5:1 molar ratio for 2 h at room temperature with continual stirring. Following incubation, buffer was exchanged into 1× PBS, 0.5 mM Tris(2-carboxyethyl)phosphine using a PD-10 column (GE Healthcare). Labeled peptides were concentrated using an Amicon centrifugal concentrator. Immediately prior to the fluorescence anisotropy assays the HDACs were concentrated and buffer exchanged into 1× PBS, 0.5 mM Tris(2-carboxyethyl)-phosphine and the protein concentration was determined by A280 in 6 M guanidine HCl. Protein was dispensed into 96-well black plates prior to a 2-fold serial dilution in reaction buffer (1× PBS, 0.01% Triton X-100, 0.1 mg/ml of BSA). Inhibitors were preincubated with HDACs for 30 min at a 2:1 ratio before serial dilution. Labeled peptide was added to a final concentration of 1 μM in a 50-μl reaction volume. […] Data were analyzed using GraphPad Prism, assuming non-linear fit with one-site binding to fulfill the equation y = Bmax × x/(Kd + x).

[3] = molecular target: T3, HDAC9 catalytic domain (Homo sapiens, UniProt Q9UKV0); assay: Fluorescence anisotropy binding of labeled GSI peptide to HDAC9; conditions: Fig. 2B, labeled wild type peptide 1 μM
T3 construct: we purified the recombinant catalytic domains of HDACs 4, 5, 7, and 9; hexa-histidine tag (N, cleaved yes); S-tag (N, cleaved yes); made in house; host or cells: Escherichia coli Rosetta (as for HDAC4)
Protocol: (§1) Wild type peptide was obtained from Biomatik. Mutant peptides were synthesized in house using a CEM microwave peptide synthesizer. Peptides for use in fluorescence anisotropy assays were synthesized with an extra N-terminal cysteine.
(§2) Peptides were coupled to BODIPY-TMR by incubation in 18 MΩ water at a 5:1 molar ratio for 2 h at room temperature with continual stirring. Following incubation, buffer was exchanged into 1× PBS, 0.5 mM Tris(2-carboxyethyl)phosphine using a PD-10 column (GE Healthcare). Labeled peptides were concentrated using an Amicon centrifugal concentrator. Immediately prior to the fluorescence anisotropy assays the HDACs were concentrated and buffer exchanged into 1× PBS, 0.5 mM Tris(2-carboxyethyl)-phosphine and the protein concentration was determined by A280 in 6 M guanidine HCl. Protein was dispensed into 96-well black plates prior to a 2-fold serial dilution in reaction buffer (1× PBS, 0.01% Triton X-100, 0.1 mg/ml of BSA). Inhibitors were preincubated with HDACs for 30 min at a 2:1 ratio before serial dilution. Labeled peptide was added to a final concentration of 1 μM in a 50-μl reaction volume. Measurements were recorded using an excitation wavelength of 531 nm and emission wavelength of 595 nm. Data were analyzed using GraphPad Prism, assuming non-linear fit with one-site binding to fulfill the equation y = Bmax × x/(Kd + x).

[4] = molecular target: T4, full-length HDAC8 (Homo sapiens, UniProt Q9BY41); assay: Fluorescence anisotropy binding of labeled GSI peptide to HDAC8; conditions: Fig. 2B, class I HDAC8 control, labeled wild type peptide 1 μM
T4 construct: along with full-length HDAC8 as an intrinsically active class I HDAC control; made in house
T4 sequence (Q9BY41 1-377): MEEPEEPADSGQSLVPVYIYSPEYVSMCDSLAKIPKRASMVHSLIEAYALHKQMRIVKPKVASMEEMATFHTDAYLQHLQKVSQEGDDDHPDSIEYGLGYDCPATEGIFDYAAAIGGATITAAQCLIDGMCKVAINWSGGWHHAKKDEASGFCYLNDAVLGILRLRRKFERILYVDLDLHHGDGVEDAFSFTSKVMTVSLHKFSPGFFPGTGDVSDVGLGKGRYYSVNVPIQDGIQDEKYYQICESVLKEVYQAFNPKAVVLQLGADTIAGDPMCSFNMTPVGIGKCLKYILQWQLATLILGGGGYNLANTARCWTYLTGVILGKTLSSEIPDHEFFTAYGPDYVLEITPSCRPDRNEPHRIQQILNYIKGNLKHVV
Protocol: as §1, §2

[5] = molecular target: T5, HDAC4cd H675A (Homo sapiens, UniProt P56524, H675A); assay: Fluorescence anisotropy binding of GSI peptide to HDAC4 H675A mutant; conditions: Fig. 3C, zinc chelating residue mutant
T5 construct: we purified the recombinant catalytic domains of HDACs 4, 5, 7, and 9; hexa-histidine tag (N, cleaved yes); S-tag (N, cleaved yes); made in house; host or cells: Escherichia coli Rosetta (pET30)
Protocol: as §2

[6] = molecular target: T6, HDAC7 catalytic domain (Homo sapiens, UniProt Q8WUI4); assay: Fluorescence anisotropy binding of labeled GSI peptide to HDAC7; conditions: Fig. 2B, labeled wild type peptide 1 μM
T6 construct: we purified the recombinant catalytic domains of HDACs 4, 5, 7, and 9; hexa-histidine tag (N, cleaved yes); S-tag (N, cleaved yes); made in house; host or cells: Escherichia coli Rosetta (as for HDAC4)
T6 sequence (Q8WUI4 512-865 limits assumed): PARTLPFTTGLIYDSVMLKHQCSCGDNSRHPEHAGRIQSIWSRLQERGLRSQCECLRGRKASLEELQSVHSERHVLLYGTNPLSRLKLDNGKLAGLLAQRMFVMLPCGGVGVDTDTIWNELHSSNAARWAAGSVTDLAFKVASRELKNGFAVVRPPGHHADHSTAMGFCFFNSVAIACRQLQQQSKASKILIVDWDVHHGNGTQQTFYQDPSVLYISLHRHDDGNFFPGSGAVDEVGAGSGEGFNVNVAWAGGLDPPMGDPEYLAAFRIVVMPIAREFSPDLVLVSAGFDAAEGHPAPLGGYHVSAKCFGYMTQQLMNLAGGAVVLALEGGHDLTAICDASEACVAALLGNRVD
Protocol: as §1, §2

[7] = molecular target: T7, HDAC5 catalytic domain (Homo sapiens, UniProt Q9UQL6); assay: Fluorescence anisotropy binding of labeled GSI peptide to HDAC5; conditions: Fig. 2B, labeled wild type peptide 1 μM
T7 construct: we purified the recombinant catalytic domains of HDACs 4, 5, 7, and 9; hexa-histidine tag (N, cleaved yes); S-tag (N, cleaved yes); made in house; host or cells: Escherichia coli Rosetta (as for HDAC4)
Protocol: as §1, §2

[8] = molecular target: T8, HDAC4cd C667A (Homo sapiens, UniProt P56524, C667A); assay: Fluorescence anisotropy binding of GSI peptide to HDAC4 C667A mutant; conditions: Fig. 3C, zinc chelating residue mutant
T8 construct: we purified the recombinant catalytic domains of HDACs 4, 5, 7, and 9; hexa-histidine tag (N, cleaved yes); S-tag (N, cleaved yes); made in house; host or cells: Escherichia coli Rosetta (pET30)
Protocol: as §2

[9] = molecular target: T9, HDAC4cd C751A (Homo sapiens, UniProt P56524, C751A); assay: Fluorescence anisotropy binding of GSI peptide to HDAC4 C751A mutant; conditions: Fig. 3C, zinc chelating residue mutant
T9 construct: we purified the recombinant catalytic domains of HDACs 4, 5, 7, and 9; hexa-histidine tag (N, cleaved yes); S-tag (N, cleaved yes); made in house; host or cells: Escherichia coli Rosetta (pET30)
Protocol: as §2

[10] = Fig. 2A, fluorescence anisotropy, BODIPY-TMR labeled peptide 1 μM, HDAC4 2-fold serial dilution, one-site binding fit, read-out: Kd

T1 sequence (P56524 655-1084 limits assumed): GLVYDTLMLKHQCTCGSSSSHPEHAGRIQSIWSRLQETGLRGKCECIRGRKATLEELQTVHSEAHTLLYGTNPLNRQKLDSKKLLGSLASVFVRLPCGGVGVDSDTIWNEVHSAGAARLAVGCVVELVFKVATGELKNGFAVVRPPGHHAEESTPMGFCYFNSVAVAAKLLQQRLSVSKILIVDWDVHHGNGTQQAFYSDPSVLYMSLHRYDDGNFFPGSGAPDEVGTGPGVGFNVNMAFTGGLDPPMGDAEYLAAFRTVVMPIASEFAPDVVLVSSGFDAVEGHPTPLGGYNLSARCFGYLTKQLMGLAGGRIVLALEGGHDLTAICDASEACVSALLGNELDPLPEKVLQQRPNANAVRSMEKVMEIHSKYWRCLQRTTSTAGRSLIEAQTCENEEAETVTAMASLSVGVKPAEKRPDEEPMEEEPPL
T7 sequence (Q9UQL6 684-1028 limits assumed, species assumed): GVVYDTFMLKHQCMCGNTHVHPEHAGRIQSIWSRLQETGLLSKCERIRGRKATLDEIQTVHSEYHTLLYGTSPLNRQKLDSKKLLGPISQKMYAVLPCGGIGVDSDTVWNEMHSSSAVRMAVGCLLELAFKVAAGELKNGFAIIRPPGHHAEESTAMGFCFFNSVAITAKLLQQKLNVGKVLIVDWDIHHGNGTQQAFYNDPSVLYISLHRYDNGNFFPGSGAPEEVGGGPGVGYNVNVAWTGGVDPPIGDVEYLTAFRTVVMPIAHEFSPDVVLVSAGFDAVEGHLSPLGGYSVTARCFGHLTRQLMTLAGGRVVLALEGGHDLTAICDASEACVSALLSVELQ
T9 sequence (P56524 655-1084 C751A limits assumed): as the sequence (P56524 655-1084 limits assumed) above, with C97A counted along it
T5 sequence (P56524 655-1084 H675A limits assumed): as the sequence (P56524 655-1084 limits assumed) above, with H21A counted along it
T8 sequence (P56524 655-1084 C667A limits assumed): as the sequence (P56524 655-1084 limits assumed) above, with C13A counted along it
T3 sequence (Q9UKV0 631-978 limits assumed, species assumed): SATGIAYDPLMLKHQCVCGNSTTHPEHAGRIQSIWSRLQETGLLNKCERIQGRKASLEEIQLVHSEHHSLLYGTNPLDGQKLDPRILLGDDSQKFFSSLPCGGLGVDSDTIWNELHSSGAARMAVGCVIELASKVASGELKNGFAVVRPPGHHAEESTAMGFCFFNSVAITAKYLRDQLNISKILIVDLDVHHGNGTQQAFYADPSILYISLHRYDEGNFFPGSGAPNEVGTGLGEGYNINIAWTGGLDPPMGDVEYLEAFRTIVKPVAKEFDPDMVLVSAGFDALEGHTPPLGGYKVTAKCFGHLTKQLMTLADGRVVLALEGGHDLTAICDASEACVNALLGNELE

Compound: CPRPLKEGSIAQGTPLKYDTG [T4A]
Kd [1, 10]: 14.4 ± 4.26 µM

Compound: O=C(CCCCCCC(=O)Nc1ccccc1)NO [SAHA, suberoylanilide hydroxamic acid, reference compound]
maximum polarization of GSI peptide binding in the presence of inhibitor ([1]; wild type HDAC4, 2-fold molar excess of inhibitor): lower maximum polarization

Compound: CCCC(=O)[O-].[Na+] [Sodium Butyrate, sodium butyrate, reference compound]
Kd ([1]; Fig. 4A, wild type HDAC4 catalytic domain preincubated 30 min with 2-fold molar excess of the named inhibitor, Kd is that of the labeled GSI peptide, read-out: WT Kd of the GSI peptide in the presence of the HDAC inhibitor): 4.61 ± 0.26 µM | Kd ([2]; Fig. 4A, H976Y GOF HDAC4 catalytic domain preincubated 30 min with 2-fold molar excess of the named inhibitor, Kd is that of the labeled GSI peptide, read-out: GOF Kd of the GSI peptide in the presence of the HDAC inhibitor): 2.53 ± 0.24 µM

Compound: CC[C@H](C)[C@H](NC(=O)[C@H](CO)NC(=O)CNC(=O)[C@H](CCC(=O)O)NC(=O)[C@H](CCCCN)NC(=O)[C@H](CC(C)C)NC(=O)[C@@H]1CCCN1C(=O)[C@H](CCCNC(=N)N)NC(=O)[C@@H]1CCCN1C(=O)[C@@H](N)CS)C(=O)N[C@H](C(=O)N[C@@H](CCC(N)=O)C(=O)NCC(=O)N[C@H](C(=O)N1CCC[C@H]1C(=O)N[C@@H](CC(C)C)C(=O)N[C@@H](CCCCN)C(=O)N[C@@H](Cc1ccc(O)cc1)C(=O)N[C@@H](CC(=O)O)C(=O)N[C@H](C(=O)NCC(=O)O)[C@@H](C)O)[C@@H](C)O)[C@@H](C)O [WT]
Kd [3]: 8.34 ± 1.07 µM | Kd [4]: no interaction | Kd ([4]; read-out: Kd): > 1000 µM | Kd [5]: > 1000 µM | Kd ([1]; Fig. 4A, wild type HDAC4 catalytic domain, DMSO, read-out: WT Kd): 3.22 ± 0.2 µM | Kd ([1]; Fig. 4A, wild type HDAC4 catalytic domain, No Inhibitor, read-out: WT Kd): 4.73 ± 0.31 µM | Kd [6]: 4.44 ± 0.44 µM | Kd [7]: 4.24 ± 0.59 µM | Kd ([2]; Fig. 4A, H976Y GOF HDAC4 catalytic domain, DMSO, read-out: GOF Kd): 2.94 ± 0.15 µM | Kd ([2]; Fig. 4A, H976Y GOF HDAC4 catalytic domain, No Inhibitor, read-out: GOF Kd): 1.76 ± 0.18 µM | Kd [8]: > 1000 µM | Kd [9]: > 1000 µM

Further lines, results first:

Kd [1, 10]: 5.47 ± 0.57 µM
Compound: CPRPLKEGSITAGTPLKYDTG [Q5A]

Kd [1, 10]: 16.9 ± 8.73 µM
Compound: CPRPLKEGSIVQGTPLKYDTG [T4V]

Kd [1, 10]: 17.7 ± 1.4 µM
Compound: CPRPLKEGSITEGTPLKYDTG [Q5E]

Kd ([1]; read-out: WT Kd of the GSI peptide in the presence of the HDAC inhibitor): 3.38 ± 0.24 µM | Kd ([2]; read-out: GOF Kd of the GSI peptide in the presence of the HDAC inhibitor): 2.62 ± 0.18 µM
Compound: CCCC(CCC)C(=O)O [Valproic Acid, valproic acid, reference compound]

Kd [1, 10]: 47 ± 12.3 µM
Compound: CPRPLKEGSITQGTALKYDTG [P8A]
